Results reported in patent US20130231303A1, “5-HALOGENOPYRAZOLE(THIO)CARBOXAMIDES” (Bayer Intellectual Property GmbH, priority 2010, published 2013).
Like-named read-outs stand apart in the source and are kept apart here.

Assays:
Alternaria solani = assay: Alternaria test (tomato)/preventive; type: in vivo; conditions: preventive, 500 ppm, evaluated 7 days after inoculation
Experimental: The plants remain for one day in an incubation cabinet at approximately 22° C. and a relative atmospheric humidity of 100%. Then the plants are placed in an incubation cabinet at approximately 20° C. and a relative atmospheric humidity of 96%.

Puccinia recondita = assay: Puccinia test (wheat)/preventive; type: in vivo; conditions: preventive, 500 ppm, evaluated 7-9 days after inoculation
Experimental: (§1) The plants remain for 48 hours in an incubation cabinet at 22° C. and a relative atmospheric humidity of 100%. Then the plants are placed in a greenhouse at a temperature of approximately 20° C. and a relative atmospheric humidity of approximately 80%.

[1] = logP by HPLC on reversed-phase column (EEC Directive 79/831 Annex V.A8); type: physicochemical
Experimental: In table 1, the logP values were determined in accordance with EEC Directive 79/831 Annex V.A8 by HPLC (High Performance Liquid Chromatography) on a reversed-phase column (C 18), using the method described below: Temperature: 40° C.; Mobile phases: 0.1% aqueous formic acid and acetonitrile; linear gradient from 10% acetonitrile to 90% acetonitrile. Calibration was carried out using unbranched alkan-2-ones (comprising 3 to 16 carbon atoms) with known logP values (determination of the logP values by the retention times using linear interpolation between two successive alkanones). lambda-max-values were determined using UV-spectra from 200 nm to 400 nm and the peak values of the chromatographic signals.

Pyrenophora teres = assay: Pyrenophora test (barley)/preventive; type: in vivo; conditions: preventive, 500 ppm, evaluated 7-9 days after inoculation
Experimental: as §1

[2] = system: Blumeria graminis f.sp. hordei; assay: Blumeria test (barley)/preventive; type: in vivo; conditions: preventive, 500 ppm, evaluated 7 days after inoculation
Experimental: After the spray coating has been dried, the plants are dusted with spores of Blumeria graminis f.sp. hordei. The plants are placed in the greenhouse at a temperature of approximately 18° C. and a relative atmospheric humidity of approximately 80% to promote the development of mildew pustules.

[3] = system: Fusarium nivale (var. majus); assay: Fusarium nivale (var. majus)-test (wheat)/preventive; type: in vivo; conditions: preventive; for Efficacy: evaluated 5 days after inoculation
Experimental: After the spray coating has been dried, the plants are slightly injured by using a sandblast and afterwards they are sprayed with a conidia suspension of Fusarium nivale (var. majus). The plants are placed in the greenhouse under a translucent incubation cabinet at a temperature of approximately 10° C. and a relative atmospheric humidity of approximately 100%.

Sphaerotheca fuliginea = assay: Sphaerotheca test (cucumber)/preventive; type: in vivo; conditions: preventive, 500 ppm, evaluated 7 days after inoculation
Experimental: Then the plants are placed in a greenhouse at approximately 23° C. and a relative atmospheric humidity of approximately 70%.

[4] = HPLC, reversed-phase C 18, 40° C., 0.1% aqueous formic acid and acetonitrile gradient

Row | logP [1, 4] | logP [1] | Compound | Efficacy (Alternaria solani) [%] | Efficacy (Puccinia recondita) [%] | Efficacy (Pyrenophora teres) [%] | other results
1 | 3.74 | – | CC(C)CCc1sccc1NC(=O)c1c(C(F)F)nn(C)c1Cl [Example 1] | 100 | 95 | 100 | Efficacy [2]: 94%; Efficacy ([3]; 500 ppm): 80%
2 | – | 3.70 | CC=C(c1ccccc1)c1sccc1NC(=O)c1c(C(F)F)nn(C)c1Cl [Example 37] | – | – | – | –
3 | – | 4.25 | Cn1nc(C(F)F)c(C(=O)Nc2ccsc2C=C2CCCCC2)c1Cl [Example 30] | 70 | – | 80 | –
4 | – | 3.87 | Cn1nc(C(F)F)c(C(=O)Nc2cc(-c3ccc(Cl)cc3)cs2)c1F [Example 41] | – | – | – | –
5 | 4.23 | – | CCC(C)=C(C)c1sccc1NC(=O)c1c(C(F)F)nn(C)c1Cl [Example 28] | 94 | 80 | 100 | –
6 | 4.45 | – | CC(C)CCC(C)c1sccc1NC(=O)c1c(C(F)F)nn(C)c1Cl (stereo not shown) [Example 16] | 88 | 100 | 94 | –
7 | 4.46 | – | CCC(CC(C)C)c1sccc1NC(=O)c1c(C(F)F)nn(C)c1Cl (stereo not shown) [Example 15] | 88 | 90 | 100 | Efficacy [2]: 94%
8 | 4.41 | – | CCC(C)C(C)Cc1sccc1NC(=O)c1c(C(F)F)nn(C)c1Cl (stereo not shown) [Example 13] | 95 | 90 | 100 | Efficacy [2]: 100%; Efficacy ([3]; 500 ppm): 100%
9 | 4.25 | – | CCCCC(C)c1sccc1NC(=O)c1c(C(F)F)nn(C)c1Cl (stereo not shown) [Example 7] | – | 100 | 95 | Efficacy ([3]; 500 ppm): 90%
10 | 3.92 | – | Cn1nc(C(F)F)c(C(=O)Nc2ccsc2C=CC(C)(C)C)c1Cl [Example 23] | 70 | 90 | 80 | –
11 | – | 3.99 | CCC(C)C(C)c1sccc1NC(=O)c1c(C(F)F)nn(C)c1Cl (stereo not shown) [Example 10] | – | 90 | 100 | –
12 | 4.41 | – | CCC(C)C(C)=Cc1sccc1NC(=O)c1c(C(F)F)nn(C)c1Cl (stereo not shown) [Example 31] | – | – | 70 | –
13 | 4.26 | – | CC=C(c1sccc1NC(=O)c1c(C(F)F)nn(C)c1Cl)C(C)C [Example 27] | 75 | 80 | 89 | –

Further lines, the compound ahead of its results:

Row | Compound | logP [1, 4] | logP [1] | Efficacy (Alternaria solani) [%] | Efficacy (Puccinia recondita) [%] | Efficacy (Pyrenophora teres) [%] | other results
14 | CCCCC(C)c1sccc1NC(=O)c1c(C(F)F)nn(C)c1Cl (stereo not shown) [Example 8] | 4.13 | – | 94 | 95 | 100 | –
15 | Cn1nc(C(F)F)c(C(=O)Nc2ccsc2CC2CCCCC2)c1Cl [Example 12] | 4.27 | – | 100 | 95 | 100 | Efficacy [2]: 94%
16 | Cc1ccc(-c2ccsc2NC(=O)c2c(C(F)F)nn(C)c2F)cc1 [Example 40] | – | 3.60 | – | – | – | –
17 | CCC(CC)Cc1sccc1NC(=O)c1c(C(F)F)nn(C)c1Cl [Example 5] | 4.03 | – | 100 | 90 | 100 | –
18 | Cn1nc(C(F)F)c(C(=O)Nc2ccsc2CCC(C)(C)C)c1Cl [Example 6] | 4.01 | – | 95 | 100 | 100 | Efficacy [2]: 94%; Efficacy ([3]; 500 ppm): 100%; Efficacy (Sphaerotheca fuliginea): 89%
19 | CCC(c1sccc1NC(=O)c1c(C(F)F)nn(C)c1Cl)C(C)C (stereo not shown) [Example 9] | 4.07 | – | 94 | 80 | 100 | –
20 | CC(C)CC(C)c1sccc1NC(=O)c1cn(C)nc1C(F)(F)F (stereo not shown) [Example 1.13 from EP-0737682, 1-methyl-N-[2-(4-methylpentan-2-yl)-3-thienyl]-3-(trifluoromethyl)-1H-pyrazole-4-carboxamide, reference compound] | – | – | – | – | – | Efficacy ([3]; 250 ppm): 14%; Efficacy ([3]; 500 ppm): 43%; protection ([3]; dose of 250 ppm and 500 ppm (text summary of table G2)): less than 50%
21 | CCCC(CCC)c1sccc1NC(=O)c1c(C(F)F)nn(C)c1Cl [Example 14] | – | 4.54 | – | 70 | 94 | –
22 | CCCC(C)c1sccc1NC(=O)c1c(C(F)F)nn(C)c1Cl (stereo not shown) [Example 2] | 3.70 | – | 94 | 100 | 100 | –
23 | CCCCC=Cc1sccc1NC(=O)c1c(C(F)F)nn(C)c1Cl [Example 25] | – | 4.12 | – | – | – | –
24 | CCC=C(C)c1sccc1NC(=O)c1c(C(F)F)nn(C)c1Cl (mixture of isomers) [Example 22] | – | – | 94 | 80 | 94 | –
25 | CC(c1sccc1NC(=O)c1c(C(F)F)nn(C)c1Cl)C1CCCCC1 (stereo not shown) [Example 21] | 4.56 | – | 95 | 95 | 100 | –
26 | CC(=CC(C)(C)C)c1sccc1NC(=O)c1c(C(F)F)nn(C)c1Cl (mixture of isomers) [Example 33] | – | – | 88 | 95 | 94 | –
27 | CC(CC(C)(C)C)c1sccc1NC(=O)c1c(C(F)F)nn(C)c1Cl (stereo not shown) [Example 17] | 4.29 | – | 94 | 100 | 94 | Efficacy (Sphaerotheca fuliginea): 100%
28 | CC(CCCC#N)c1sccc1NC(=O)c1c(C(F)F)nn(C)c1Cl (stereo not shown) [Example 11] | – | 2.57 | – | 100 | 94 | –
29 | CCC=C(CCC)c1sccc1NC(=O)c1c(C(F)F)nn(C)c1Cl (mixture of isomers) [Example 32] | – | – | – | 80 | – | –
30 | CC(=CCC(C)C)c1sccc1NC(=O)c1c(C(F)F)nn(C)c1Cl (mixture of isomers) [Example 34] | – | – | – | – | 78 | –
31 | Cn1nc(C(F)F)c(C(=S)Nc2ccsc2CC[Si](C)(C)C)c1F [Example 20] | – | 4.46 | – | – | – | –
32 | CCCC=C(C)c1sccc1NC(=O)c1c(C(F)F)nn(C)c1Cl (mixture of isomers) [Example 26] | – | – | 75 | – | 89 | –
33 | C=C(c1sccc1NC(=O)c1c(C(F)F)nn(C)c1Cl)C1CCCCC1 [Example 36] | – | – | – | 80 | 95 | –
34 | CCC(=Cc1sccc1NC(=O)c1c(C(F)F)nn(C)c1Cl)CC [Example 24] | – | 4.06 | – | 90 | 90 | –
35 | Cn1nc(C(F)F)c(C(=O)Nc2ccsc2-c2ccccc2)c1F [Example 38] | – | 3.11 | – | – | – | –
